Test results taken from PubChem BioAssay (NCI).
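Cells were grown in 96-well plates and exposed to each compound for 48 hours at five concentrations; endpoints were interpolated linearly between bracketing concentrations, or set to the highest concentration if not reached. TGI: concentration producing complete growth inhibition.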

Columns and labels:
Assay in all cases: NCI-60 cell line screen, 48 h
RPMI-8226 leukemia = system: RPMI-8226 leukemia
SN12C renal = system: SN12C renal
IGROV1 ovarian = system: IGROV1 ovarian
ACHN renal = system: ACHN renal
OVCAR-3 ovarian = system: OVCAR-3 ovarian
U251 CNS = system: U251 CNS
786-0 renal = system: 786-0 renal
DMS 114 small cell lung = system: DMS 114 small cell lung
DLD-1 colon = system: DLD-1 colon
UACC-257 melanoma = system: UACC-257 melanoma
TK-10 renal = system: TK-10 renal
MALME-3M melanoma = system: MALME-3M melanoma
HOP-62 NSCLC = system: HOP-62 NSCLC
RXF 393 renal = system: RXF 393 renal
KM12 colon = system: KM12 colon
SK-OV-3 ovarian = system: SK-OV-3 ovarian
NCI-H460 lung = system: NCI-H460 lung
COLO 205 colon = system: COLO 205 colon
SK-MEL-2 melanoma = system: SK-MEL-2 melanoma
OVCAR-8 ovarian = system: OVCAR-8 ovarian
SNB-19 CNS = system: SNB-19 CNS
K-562 leukemia = system: K-562 leukemia
MOLT-4 leukemia = system: MOLT-4 leukemia
SW-620 colon = system: SW-620 colon
M14 melanoma = system: M14 melanoma
SK-MEL-28 melanoma = system: SK-MEL-28 melanoma
A549 NSCLC = system: A549 NSCLC
CCRF-CEM leukemia = system: CCRF-CEM leukemia
HCT-15 colon = system: HCT-15 colon
HT29 colon = system: HT29 colon
DMS 273 small cell lung = system: DMS 273 small cell lung
HCT-116 colon = system: HCT-116 colon
SF-539 CNS = system: SF-539 CNS
UO-31 renal = system: UO-31 renal
SF-295 CNS = system: SF-295 CNS
EKVX NSCLC = system: EKVX NSCLC
LOX IMVI melanoma = system: LOX IMVI melanoma
NCI-H226 lung = system: NCI-H226 lung
HOP-18 NSCLC = system: HOP-18 NSCLC
SNB-75 CNS = system: SNB-75 CNS
NCI-H522 lung = system: NCI-H522 lung
NCI-H23 lung = system: NCI-H23 lung
UACC-62 melanoma = system: UACC-62 melanoma
KM20L2 colon = system: KM20L2 colon
CAKI-1 renal = system: CAKI-1 renal
SK-MEL-5 melanoma = system: SK-MEL-5 melanoma
A498 renal = system: A498 renal
OVCAR-4 ovarian = system: OVCAR-4 ovarian
HCC-2998 colon = system: HCC-2998 colon
M19-MEL melanoma = system: M19-MEL melanoma
OVCAR-5 ovarian = system: OVCAR-5 ovarian
SR leukemia = system: SR leukemia
SNB-78 CNS = system: SNB-78 CNS
SF-268 CNS = system: SF-268 CNS
HL-60(TB) leukemia = system: HL-60(TB) leukemia

Measured: TGI

O=C1[C@H]2C(c3ccccc3)=NN(C(=O)c3ccccc3)[C@H]2C(=O)N1c1ccccc1
not listed: KM20L2 colon | CAKI-1 renal | SK-MEL-5 melanoma | A498 renal | OVCAR-4 ovarian | HCC-2998 colon | M19-MEL melanoma | OVCAR-5 ovarian | SR leukemia | SNB-78 CNS | SF-268 CNS | HL-60(TB) leukemia
> 100 µM: all other assays above

COC(=O)c1c(C)oc2ccc(OC(C)=O)cc12
not listed: DLD-1 colon | HOP-18 NSCLC
> 100 µM: all other assays above
